Among the data in patent US10316049B2, “Tank-binding kinase inhibitor compounds” (Gilead Sciences, Inc., priority 2015, dated 2019) are IC50 values, retold here.

The target of assay [1] is T1, TBK1 (Homo sapiens, UniProt Q9UHD2).
T1 construct: TBK1 and IKKε were expressed and purified as full length recombinant proteins; made in house
T1 sequence (Q9UHD2 1-729): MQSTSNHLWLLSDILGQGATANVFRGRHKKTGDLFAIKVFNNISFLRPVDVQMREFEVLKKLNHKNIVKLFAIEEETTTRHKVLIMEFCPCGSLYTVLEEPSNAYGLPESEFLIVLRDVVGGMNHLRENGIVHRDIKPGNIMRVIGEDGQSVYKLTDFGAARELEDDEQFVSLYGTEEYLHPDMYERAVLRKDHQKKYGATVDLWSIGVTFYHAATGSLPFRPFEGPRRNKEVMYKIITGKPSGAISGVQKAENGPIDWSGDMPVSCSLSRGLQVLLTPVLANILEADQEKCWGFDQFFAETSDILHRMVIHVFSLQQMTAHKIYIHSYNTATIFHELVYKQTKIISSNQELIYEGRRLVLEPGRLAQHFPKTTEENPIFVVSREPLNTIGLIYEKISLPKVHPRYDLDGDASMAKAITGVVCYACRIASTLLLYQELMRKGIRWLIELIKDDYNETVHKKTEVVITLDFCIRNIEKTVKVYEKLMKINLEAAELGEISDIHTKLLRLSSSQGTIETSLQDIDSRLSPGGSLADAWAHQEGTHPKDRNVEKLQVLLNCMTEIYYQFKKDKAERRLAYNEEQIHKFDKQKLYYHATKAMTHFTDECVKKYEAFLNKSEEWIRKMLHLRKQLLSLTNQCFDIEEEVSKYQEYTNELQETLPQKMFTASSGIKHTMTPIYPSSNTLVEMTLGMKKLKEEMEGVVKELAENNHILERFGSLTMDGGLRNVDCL
In words: TR-FRET enzymatic activity assay, TBK1. Further: full length recombinant TBK1 at 2.5 nM. It is filed as biochemical. The essentials:
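Full-length recombinant enzymes phosphorylated a biotinylated Ser/Thr peptide for 240 min at 25 °C, stopped with EDTA. Phosphopeptide detected by TR-FRET (streptavidin XL665, Eu-cryptate anti-phospho antibody). IC50 from four-parameter fits normalized to 1 μM staurosporine and DMSO controls, as geometric means of at least four determinations.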

For assay [2], the target named is T2, IKKε (Homo sapiens, UniProt Q14164).
T2 construct: TBK1 and IKKε were expressed and purified as full length recombinant proteins; made in house
T2 sequence (Q14164 1-716): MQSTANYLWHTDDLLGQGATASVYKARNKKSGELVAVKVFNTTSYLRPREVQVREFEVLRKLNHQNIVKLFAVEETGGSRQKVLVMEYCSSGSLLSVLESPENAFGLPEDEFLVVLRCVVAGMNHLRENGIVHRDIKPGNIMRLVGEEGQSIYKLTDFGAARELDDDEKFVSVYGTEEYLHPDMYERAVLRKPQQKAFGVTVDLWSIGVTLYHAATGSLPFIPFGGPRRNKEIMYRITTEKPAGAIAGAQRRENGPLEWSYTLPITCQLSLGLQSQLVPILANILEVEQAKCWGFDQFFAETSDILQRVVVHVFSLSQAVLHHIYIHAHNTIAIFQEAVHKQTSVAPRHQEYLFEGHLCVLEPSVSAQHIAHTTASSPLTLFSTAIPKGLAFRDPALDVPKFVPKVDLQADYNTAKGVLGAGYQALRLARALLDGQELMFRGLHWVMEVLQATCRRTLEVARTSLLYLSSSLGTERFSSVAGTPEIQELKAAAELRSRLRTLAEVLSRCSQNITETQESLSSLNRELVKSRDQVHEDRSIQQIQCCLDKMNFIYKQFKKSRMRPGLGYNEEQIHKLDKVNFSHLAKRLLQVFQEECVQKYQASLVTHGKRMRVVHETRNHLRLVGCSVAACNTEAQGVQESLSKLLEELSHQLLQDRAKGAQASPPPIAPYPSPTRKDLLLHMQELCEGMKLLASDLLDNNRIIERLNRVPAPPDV
Put plainly: TR-FRET enzymatic activity assay, IKKε. Further: full length recombinant IKKε at 0.3 nM. Type of assay: biochemical. To be noted: read-out: IKKϵ IC50. The essentials:
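Full-length recombinant IKKε phosphorylated a biotinylated Ser/Thr peptide for 240 min at 25 °C; EDTA stop. Phospho-peptide detected by TR-FRET with streptavidin-XL665 (125 nM) and Eu-cryptate anti-phospho antibody. Normalised to staurosporine and DMSO controls; IC50 from four-parameter fit, geometric mean of ≥4 runs.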
Background: In TR-FRET formats the signal depends on donor and acceptor labels being close together.

By IC50 is commonly meant the concentration needed to halve the response being measured. In the case of `CC(Oc1ccc(-c2cc(NC(=O)C3CC3)ncn2)cc1C#N)C(F)(F)F` (centres unmarked) [Example 106, N-(6-(3-cyano-4-((1,1,1-trifluoropropan-2-yl)oxy)phenyl)pyrimidin-4-yl)cyclopropanecarboxamide], the half-maximal inhibitory concentration (IC50) in assay [1] was 301 nM; in assay [2] it was more than 1000 nM.

As to `CN(C)C(=O)[C@@H]1C[C@@H]1C(=O)Nc1cc(-c2ccc(O[C@H]3CCN(C(=O)CO)C[C@H]3F)c(C#N)c2)ccn1` [Example 79, (1,2-cis)-N^1-(4-(3-cyano-4-(((3R,4S)-3-fluoro-1-(2-hydroxyacetyl)piperidin-4-yl)oxy)phenyl)pyridin-2-yl)-N^2,N^2-dimethylcyclopropane-1,2-dicarboxamide], the half-maximal inhibitory concentration (IC50) in assay [1] and in assay [2] was more than 1000 nM each time.

For `N#Cc1cc(-c2ccnc(NC(=O)[C@@H]3C[C@H]3c3cccnc3)c2)ccc1O[C@H]1CCN(C(=O)CO)C[C@H]1F` [Example 135, (1R,2R)—N-(4-(3-cyano-4-(((3R,4S)-3-fluoro-1-(2-hydroxyacetyl)piperidin-4-yl)oxy)phenyl)pyridin-2-yl)-2-(pyridin-3-yl)cyclopropane-1-carboxamide], the IC50 was determined as 21.4 nM in assay [1] and 27.4 nM in assay [2].

As for `N#Cc1cc(-c2ccnc(NC(=O)[C@@H]3C[C@H]3c3cccnc3)c2)ccc1O[C@H]1CCN(C(=O)CO)CC1(F)F` [Example 134, (1,2-Trans)-N-(4-(3-cyano-4-(((S)-3,3-difluoro-1-(2-hydroxyacetyl)piperidin-4-yl)oxy)phenyl)pyridin-2-yl)-2-(pyridin-3-yl)cyclopropane-1-carboxamide], the figures for the concentration for half-maximal inhibition (IC50) in assay [1] and in assay [2] were 7.4 nM and 10.9 nM, respectively.

For `N#Cc1cc(-c2ccnc(NC(=O)C3CC3C(F)(F)F)c2)ccc1O[C@H]1CCN(C(=O)CO)C[C@H]1F` (stereo partly drawn) [Example 66, N-(4-(3-Cyano-4-(((3R,4S)-3-fluoro-1-(2-hydroxyacetyl)piperidin-4-yl)oxy)phenyl)pyridin-2-yl)-2-(trifluoromethyl)cyclopropane-1-carboxamide], the IC50 in assay [1] stood at 28.3 nM; in assay [2] it was 108 nM.

Turning to `N#Cc1cc(-c2ccnc(NC(=O)[C@@H]3C[C@H]3C(=O)NCCO)c2)ccc1OC1CCOCC1` (relative stereo) [Example 46, (1,2-trans)-N1-(4-(3-cyano-4-((tetrahydro-2H-pyran-4-yl)oxy)phenyl)pyridin-2-yl)-N2-(2-hydroxyethyl)cyclopropane-1,2-dicarboxamide], the IC50 in assay [1] is 302 nM; in assay [2], 429 nM.

As to `N#Cc1cc(-c2ccnc(NC(=O)C3CC3)c2)ccc1O[C@H]1CCN(C(=O)CO)C[C@H]1F` [Example 8, N-(4-(3-cyano-4-(((3R,4S)-3-fluoro-1-(2-hydroxyacetyl)piperidin-4-yl)oxy)phenyl)pyridin-2-yl)cyclopropanecarboxamide], the concentration for half-maximal inhibition (IC50) in assay [1] is 10.4 nM; in assay [2], 25.1 nM.

As for `COc1cc(-c2ccnc(NC(=O)C3CC3)c2)cc(C#N)c1OC1CCOCC1` [Example 7, N-(4-(3-cyano-5-methoxy-4-((tetrahydro-2H-pyran-4-yl)oxy)phenyl)pyridin-2-yl)cyclopropanecarboxamide], the values for the half-maximal inhibitory concentration (IC50) in assay [1] and in assay [2] were 492 nM and more than 1000 nM, respectively.

For `N#Cc1cc(-c2ccnc(NC(=O)C3CC3)c2)ccc1N1CCC[C@H]1C(=O)O` [Example 26, (2-Cyano-4-(2-(cyclopropanecarboxamido)pyridin-4-yl)phenyl)-L-proline], the IC50 is 755 nM in assay [1] and more than 1000 nM in assay [2].

Take `N#Cc1cc(-c2cc(NC(=O)C3CC3)ncn2)ccc1O[C@H]1CCN(C(=O)[C@@H]2CCC(=O)N2)CC1(F)F` [Example 152, N-(6-(3-cyano-4-(((S)-3,3-difluoro-1-((S)-5-oxopyrrolidine-2-carbonyl)piperidin-4-yl)oxy)phenyl)pyrimidin-4-yl)cyclopropanecarboxamide]: the half-maximal inhibitory concentration (IC50) in assay [1] came out at 9.4 nM; in assay [2] it was 53.3 nM.

For `N#Cc1cc(-c2cc(NC(=O)C3CC3)ncn2)ccc1O[C@H]1CCN(C(=O)[C@@H](O)CO)C[C@H]1F` [Example 21, N-(6-(3-cyano-4-(((3R,4S)-1-((S)-2,3-dihydroxypropanoyl)-3-fluoropiperidin-4-yl)oxy)phenyl)pyrimidin-4-yl)cyclopropanecarboxamide], the IC50 worked out at 6.1 nM in assay [1] and 31.3 nM in assay [2].

For the compound `N#Cc1cc(-c2cc(NC(=O)C3CC3)ncn2)ccc1C(=O)NCC(F)F` [Example 53, 2-cyano-4-(6-(cyclopropanecarboxamido)pyrimidin-4-yl)-N-(2,2-difluoroethyl)benzamide], the IC50 in assay [1] is 762 nM; in assay [2] it was more than 1000 nM.

In the case of `Cn1cc([C@@H]2C[C@H]2C(=O)Nc2cc(-c3ccc(OC4CCOCC4)c(C#N)c3)ccn2)cn1` (relative stereo) [Example 120, (1,2-Trans)-N-(4-(3-cyano-4-((tetrahydro-2H-pyran-4-yl)oxy)phenyl)pyridin-2-yl)-2-(1-methyl-1H-pyrazol-4-yl)cyclopropane-1-carboxamide], the IC50 in assay [1] was 29.1 nM; in assay [2] it was 181 nM.

For the compound `N#Cc1cc(-c2ccnc(NC(=O)[C@H]3C[C@@H]3c3cccnc3)c2)ccc1O[C@H]1CCN(C(=O)[C@@H](O)CO)CC1(F)F` [Example 140, (1S, 2S)—N-(4-(3-cyano-4-(((S)-1-((S)-2,3-dihydroxypropanoyl)-3,3-difluoropiperidin-4-yl)oxy)phenyl)pyridin-2-yl)-2-(pyridin-3-yl)cyclopropane-1-carboxamide], the figures for the IC50 in assay [1] and in assay [2] were 4.6 nM and 5.9 nM, respectively.

Turning to `CC(O)[C@@H]1C[C@H]1C(=O)Nc1cc(-c2ccc(OC3CCOCC3)c(C#N)c2)ccn1` (stereo partly drawn) [Example 39, (1,2-trans)-N-(4-(3-cyano-4-((tetrahydro-2H-pyran-4-yl)oxy)phenyl)pyridin-2-yl)-2-(-1-hydroxyethyl)cyclopropane-1-carboxamide], the IC50 in assay [1] worked out at 96.3 nM; in assay [2] it was 73.2 nM.

As to `N#Cc1cc(-c2ccnc(NC(=O)C3CC3)c2)ccc1O[C@H]1CCN(C(=O)CO)CC1(F)F` [Example 10, (S)—N-(4-(3-cyano-4-((3,3-difluoro-1-(2-hydroxyacetyl)piperidin-4-yl)oxy)phenyl)pyridin-2-yl)cyclopropanecarboxamide], the IC50 stood at 4.2 nM in assay [1] and 7.4 nM in assay [2].

Turning to `N#Cc1cc(-c2ccnc(NC(=O)[C@H]3[C@@H]4CNC[C@@H]43)c2)ccc1OC1CCOCC1` [Example 124, (1R,5S,6R-rel)-N-(4-(3-cyano-4-((tetrahydro-2H-pyran-4-yl)oxy)phenyl)pyridin-2-yl)-3-azabicyclo[3.1.0]hexane-6-carboxamide], the values for the IC50 in assay [1] and in assay [2] were 628 nM and 316 nM, respectively.

In the case of `Cc1n[nH]c(C(=O)N2CC[C@H](Oc3ccc(-c4ccnc(NC(=O)C5CC5C)c4)cc3C#N)[C@H](F)C2)n1` (stereo partly drawn) [Example 75, N-(4-(3-Cyano-4-(((3R,4S)-3-fluoro-1-(3-methyl-1H-1,2,4-triazole-5-carbonyl)piperidin-4-yl)oxy)phenyl)pyridin-2-yl)-2-methylcyclopropane-1-carboxamide], the IC50 in assay [1] amounted to 6.1 nM; in assay [2] it was 7.1 nM.

As to `Cn1cc([C@@H]2C[C@H]2C(=O)Nc2cc(-c3ccc(O[C@H]4CCN(C(=O)[C@@H](O)CO)CC4(F)F)c(C#N)c3)ccn2)cn1` [Example 131, (1,2-Trans)-N-(4-(3-cyano-4-(((S)-1-((S)-2,3-dihydroxypropanoyl)-3,3-difluoropiperidin-4-yl)oxy)phenyl)pyridin-2-yl)-2-(1-methyl-1H-pyrazol-4-yl)cyclopropane-1-carboxamide], the figures for the 50% inhibitory concentration (IC50) in assay [1] and in assay [2] were 6.6 nM and 11.6 nM, respectively.
